Test results published in patent publication US10167257B2, “Indole derivatives for use in medicine” (IOmet Pharma Ltd., priority 2014, dated 2019).

Assays:
[1] = molecular target: T1, IDO (SKOV-3 cells) (Homo sapiens, UniProt P14902); assay: IDO cell-based assay (SKOV-3, IFNγ-induced), kynurenine production; settings: SKOV-3 ovary adenocarcinoma cells, IFNγ 500 ng/ml, 500 μM L-Trp, 48 h, kynurenine by absorbance at 490 nm
T1 construct: This assay utilised cancer cells which expressed either TDO or IDO; host or cells: SKOV-3 ovary adenocarcinoma cells, IFNγ-induced
Procedure, shortened: (§1)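 SKOV-3 cells (IDO, induced with 500 ng/ml IFNγ) or A172 glioblastoma cells (TDO) were incubated with compound and 500 μM L-Trp for 48 h at 37 °C in phenol-red-free RPMI with dialysed serum. Supernatant kynurenine was measured with 1% Ehrlich's reagent as absorbance at 490 nm.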

[2] = molecular target: T2, TDO (A172 cells) (Homo sapiens, UniProt P48775); assay: TDO cell-based assay (A172), kynurenine production; settings: A172 human glioblastoma cells, 500 μM L-Trp, 48 h, kynurenine by absorbance at 490 nm
T2 construct: This assay utilised cancer cells which expressed either TDO or IDO; host or cells: A172 human glioblastoma cells
Procedure, shortened: as §1

T1 sequence (P14902 whole entry): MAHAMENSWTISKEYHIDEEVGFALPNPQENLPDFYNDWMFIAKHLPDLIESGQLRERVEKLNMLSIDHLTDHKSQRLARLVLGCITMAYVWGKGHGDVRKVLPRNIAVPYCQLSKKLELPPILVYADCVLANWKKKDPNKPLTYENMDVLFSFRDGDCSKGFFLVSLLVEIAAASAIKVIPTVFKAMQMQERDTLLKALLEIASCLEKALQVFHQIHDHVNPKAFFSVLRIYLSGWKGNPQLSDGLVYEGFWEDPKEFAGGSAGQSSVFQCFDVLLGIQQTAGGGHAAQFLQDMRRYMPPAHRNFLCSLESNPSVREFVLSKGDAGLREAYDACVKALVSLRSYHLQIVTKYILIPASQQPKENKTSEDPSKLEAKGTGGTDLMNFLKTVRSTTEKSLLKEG
T2 sequence (P48775 whole entry): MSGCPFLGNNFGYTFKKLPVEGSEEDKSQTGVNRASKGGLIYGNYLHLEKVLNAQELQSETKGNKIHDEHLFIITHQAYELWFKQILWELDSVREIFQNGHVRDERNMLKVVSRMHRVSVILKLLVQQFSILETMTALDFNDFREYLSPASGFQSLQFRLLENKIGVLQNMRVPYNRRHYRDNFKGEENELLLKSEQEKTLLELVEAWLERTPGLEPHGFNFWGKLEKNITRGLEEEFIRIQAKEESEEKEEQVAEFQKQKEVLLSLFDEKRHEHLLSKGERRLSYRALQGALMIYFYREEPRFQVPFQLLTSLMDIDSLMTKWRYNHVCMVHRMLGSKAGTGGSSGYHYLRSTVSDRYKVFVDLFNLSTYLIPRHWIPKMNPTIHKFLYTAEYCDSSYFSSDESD

| Structure (SMILES) | IDO cellular assay (SKOV3) pIC50 [1] | TDO cellular assay (A172) pIC50 [2] |
| --- | --- | --- |
| Cn1cc(C2(NC(=O)c3cc4cc(O)ccc4[nH]3)CC2)cn1 [Compound 211] | + (+ = pIC50 4.50-<5.00) | − (− = pIC50 <4.50) |
| Cc1nc(C(C)NC(=O)c2cc3cc(Cl)ccc3[nH]2)no1 (centres unmarked) [Compound 212] | ++ (++ = pIC50 5.00-<5.50) | + (+ = pIC50 4.50-<5.00) |
| Cn1cc(C2(NC(=O)c3cc4cc(Cl)ccc4[nH]3)COC2)cn1 [Compound 213] | +++ (+++ = pIC50 ≥5.50) | − (− = pIC50 <4.50) |
| CCn1cc(C2(NC(=O)c3cc4cc(Cl)ccc4[nH]3)CC2)cn1 [Compound 214] | +++ (+++ = pIC50 ≥5.50) | − (− = pIC50 <4.50) |
| Cn1cc(C2(NC(=O)c3cc4cc(Cl)ccc4[nH]3)CCC2)cn1 [Compound 215] | +++ (+++ = pIC50 ≥5.50) | − (− = pIC50 <4.50) |
| Cc1nc(C(C)NC(=O)c2cc3cc(C#N)ccc3[nH]2)no1 (centres unmarked) [Compound 216] | + (+ = pIC50 4.50-<5.00) | − (− = pIC50 <4.50) |
| Cc1cc(C2(NC(=O)c3cc4cc(Cl)ccc4[nH]3)CC2)no1 [Compound 217] | +++ (+++ = pIC50 ≥5.50) | − (− = pIC50 <4.50) |
| O=C(NC1(c2ccccc2)COC1)c1cc2ccc(C(F)F)cc2[nH]1 [Compound 218] | + (+ = pIC50 4.50-<5.00) | − (− = pIC50 <4.50) |
| Cc1cc(C2(NC(=O)c3cc4cc(C#N)ccc4[nH]3)CC2)no1 [Compound 219] | +++ (+++ = pIC50 ≥5.50) | − (− = pIC50 <4.50) |
| O=C(NC1(c2ccccc2)COC1)c1cc2c(F)c(Cl)ccc2[nH]1 [Compound 220] | +++ (+++ = pIC50 ≥5.50) | − (− = pIC50 <4.50) |
| Cc1noc(C(C)NC(=O)c2cc3cc(C#N)ccc3[nH]2)n1 (centres unmarked) [Compound 221] | + (+ = pIC50 4.50-<5.00) | − (− = pIC50 <4.50) |
| Cc1nc(C(C)NC(=O)c2cc3cc(C#N)ccc3[nH]2)co1 (centres unmarked) [Compound 222] | ++ (++ = pIC50 5.00-<5.50) | − (− = pIC50 <4.50) |
| O=C(NC1(c2ccncc2)CC1)c1cc2cc(Cl)ccc2[nH]1 [Compound 223] | +++ (+++ = pIC50 ≥5.50) | − (− = pIC50 <4.50) |
| Cn1ccc(C2(NC(=O)c3cc4cc(Cl)ccc4[nH]3)CC2)n1 [Compound 224] | ++ (++ = pIC50 5.00-<5.50) | ++ (++ = pIC50 5.00-<5.50) |
| Cc1nc(C2(NC(=O)c3cc4cc(Cl)ccc4[nH]3)CC2)co1 [Compound 225] | +++ (+++ = pIC50 ≥5.50) | − (− = pIC50 <4.50) |
| Cc1nc(C2(NC(=O)c3cc4cc(C#N)ccc4[nH]3)CC2)co1 [Compound 226] | +++ (+++ = pIC50 ≥5.50) | − (− = pIC50 <4.50) |
| O=C(NC1(c2ccccc2)COC1)c1cc2cc(Cl)cc(F)c2[nH]1 [Compound 227] | +++ (+++ = pIC50 ≥5.50) | ++ (++ = pIC50 5.00-<5.50) |
| Cc1ncc(C(C)NC(=O)c2cc3cc(Cl)ccc3[nH]2)o1 (centres unmarked) [Compound 228] | ++ (++ = pIC50 5.00-<5.50) | ++ (++ = pIC50 5.00-<5.50) |
| Cc1ncc(C(C)NC(=O)c2cc3cc(C#N)ccc3[nH]2)o1 (centres unmarked) [Compound 229] | +++ (+++ = pIC50 ≥5.50) | +++ (+++ = pIC50 ≥5.50) |
| O=C(NC1(c2ccccc2)CCCC1)c1cc2cc(Cl)ccc2[nH]1 [Compound 230] | +++ (+++ = pIC50 ≥5.50) | − (− = pIC50 <4.50) |
| N#Cc1ccc2[nH]c(C(=O)NC3(c4ccccc4)CCCC3)cc2c1 [Compound 231] | +++ (+++ = pIC50 ≥5.50) | − (− = pIC50 <4.50) |
| Cc1nnc(C2(NC(=O)c3cc4cc(Cl)ccc4[nH]3)CC2)[nH]1 [Compound 233] | + (+ = pIC50 4.50-<5.00) | − (− = pIC50 <4.50) |
| Cc1cc(C(C)NC(=O)c2cc3cc(Cl)ccc3[nH]2)no1 (centres unmarked) [Compound 234] | +++ (+++ = pIC50 ≥5.50) | ++ (++ = pIC50 5.00-<5.50) |
| Cc1cc(C(C)NC(=O)c2cc3cc(C#N)ccc3[nH]2)no1 (centres unmarked) [Compound 235] | +++ (+++ = pIC50 ≥5.50) | − (− = pIC50 <4.50) |
| Cn1cc(C2(NC(=O)c3cc4cc(C#N)ccc4[nH]3)COC2)cn1 [Compound 236] | +++ (+++ = pIC50 ≥5.50) | − (− = pIC50 <4.50) |

| Structure (SMILES) | IDO cellular assay (SKOV3) pIC50 [1] | TDO cellular assay (A172) pIC50 [2] |
| --- | --- | --- |
| O=C(NC(c1ccccc1)c1ccccc1)c1cc2cc(Cl)ccc2[nH]1 [Compound 237] | ++ (++ = pIC50 5.00-<5.50) | − (− = pIC50 <4.50) |
| Cn1cc(C2(NC(=O)c3cc4cc(Br)ccc4[nH]3)COC2)cn1 [Compound 238] | +++ (+++ = pIC50 ≥5.50) | − (− = pIC50 <4.50) |
| CC(NC(=O)c1cc2cc(OCc3ccccc3)ccc2[nH]1)c1cnn(C)c1 (centres unmarked) [Compound 239] | + (+ = pIC50 4.50-<5.00) | − (− = pIC50 <4.50) |
| O=C(NC1(c2ccccc2)CCCCC1)c1cc2cc(Cl)ccc2[nH]1 [Compound 240] | +++ (+++ = pIC50 ≥5.50) | − (− = pIC50 <4.50) |
| CCc1ccc2[nH]c(C(=O)N[C@H](C)c3ccccc3)cc2c1 [Compound 241] | +++ (+++ = pIC50 ≥5.50) | − (− = pIC50 <4.50) |
| CCc1ccc2[nH]c(C(=O)NC3(c4ccccc4)CC3)cc2c1 [Compound 242] | +++ (+++ = pIC50 ≥5.50) | − (− = pIC50 <4.50) |
| CCc1ccc2[nH]c(C(=O)NC(C)c3cnn(C)c3)cc2c1 (centres unmarked) [Compound 243] | +++ (+++ = pIC50 ≥5.50) | − (− = pIC50 <4.50) |
| O=C(NC1(c2ccc(F)cc2)COC1)c1cc2cc(Cl)ccc2[nH]1 [Compound 244] | +++ (+++ = pIC50 ≥5.50) | − (− = pIC50 <4.50) |
| N#Cc1ccc2[nH]c(C(=O)NC3(c4ccc(F)cc4)COC3)cc2c1 [Compound 245] | +++ (+++ = pIC50 ≥5.50) | − (− = pIC50 <4.50) |
| O=C(NC1(c2ccccc2)CC1)C1Cc2cc(Cl)ccc2N1 (centres unmarked) [Compound 246] | +++ (+++ = pIC50 ≥5.50) | + (+ = pIC50 4.50-<5.00) |
| C[C@@H](NC(=O)c1cc2cc(OC(F)(F)F)ccc2[nH]1)c1ccccc1 [Compound 247] | +++ (+++ = pIC50 ≥5.50) | − (− = pIC50 <4.50) |
| O=C(NC1(c2ccccc2)CC1)c1cc2cc(OC(F)(F)F)ccc2[nH]1 [Compound 248] | +++ (+++ = pIC50 ≥5.50) | − (− = pIC50 <4.50) |
| CC(NC(=O)c1cc2cc(OC(F)(F)F)ccc2[nH]1)c1cnn(C)c1 (centres unmarked) [Compound 249] | +++ (+++ = pIC50 ≥5.50) | + (+ = pIC50 4.50-<5.00) |
| Cn1cc(C2(NC(=O)c3cc4cc(Cl)ccc4[nH]3)CCCC2)cn1 [Compound 250] | +++ (+++ = pIC50 ≥5.50) | − (− = pIC50 <4.50) |
| Cn1cc(C2(NC(=O)c3cc4cc(Cl)ccc4[nH]3)CCCCC2)cn1 [Compound 251] | +++ (+++ = pIC50 ≥5.50) | − (− = pIC50 <4.50) |
| C[C@@H](NC(=O)c1cc2cc(Br)ccc2[nH]1)c1ccccc1 [Compound 252] | +++ (+++ = pIC50 ≥5.50) | − (− = pIC50 <4.50) |
| O=C(NC1(c2ccccc2)CC1)c1cc2cc(Br)ccc2[nH]1 [Compound 253] | +++ (+++ = pIC50 ≥5.50) | − (− = pIC50 <4.50) |
| CC(NC(=O)c1cc2cc(Br)ccc2[nH]1)c1cnn(C)c1 (centres unmarked) [Compound 254] | +++ (+++ = pIC50 ≥5.50) | − (− = pIC50 <4.50) |
| CN1CCC(C(NC(=O)c2cc3cc(Cl)ccc3[nH]2)c2ccccc2)CC1 (centres unmarked) [Compound 256] | + (+ = pIC50 4.50-<5.00) | + (+ = pIC50 4.50-<5.00) |
| CCC(NC(=O)c1cc2cc(Cl)ccc2[nH]1)c1cnn(C)c1 (centres unmarked) [Compound 258] | +++ (+++ = pIC50 ≥5.50) | − (− = pIC50 <4.50) |
| CC(C)C(NC(=O)c1cc2cc(Cl)ccc2[nH]1)c1cnn(C)c1 (centres unmarked) [Compound 259] | +++ (+++ = pIC50 ≥5.50) | − (− = pIC50 <4.50) |
| CC(C)Oc1ccc2[nH]c(C(=O)N[C@H](C)c3ccccc3)cc2c1 [Compound 260] | +++ (+++ = pIC50 ≥5.50) | + (+ = pIC50 4.50-<5.00) |
| CC(C)Oc1ccc2[nH]c(C(=O)NC3(c4ccccc4)CC3)cc2c1 [Compound 261] | +++ (+++ = pIC50 ≥5.50) | − (− = pIC50 <4.50) |
| CC(C)Oc1ccc2[nH]c(C(=O)NC(C)c3cnn(C)c3)cc2c1 (centres unmarked) [Compound 262] | + (+ = pIC50 4.50-<5.00) | − (− = pIC50 <4.50) |
